From a compilation of properties of binary mixtures (doi:10.1016/j.molliq.2015.08.019)

Assay: xn = mol fraction of the nth substance listed
Conditions: 100 kPa

CCCC[n+]1ccn(C)c1.F[B-](F)(F)F + CN1CCCC1=O
speed of sound [m/s]
Conditions | x2 = 0.108 | x2 = 0.2114 | x2 = 0.3061 | x2 = 0.4422 | x2 = 0.5097 | x2 = 0.6155 | x2 = 0.7054 | x2 = 0.8025 | x2 = 0.9025
298.15 K | – | – | – | 1562.8 | 1562 | 1561.2 | – | 1559.1 | 1554.8
303.15 K | 1552.4 | 1552.2 | 1551.5 | 1549.9 | 1548.1 | – | 1544.1 | – | 1536.3
308.15 K | – | 1539.8 | – | 1536.6 | 1534.6 | 1531.5 | – | 1524.7 | 1518
313.15 K | 1528.3 | – | – | 1522.7 | 1520.8 | – | – | 1507 | –
318.15 K | 1516.4 | – | 1512.8 | 1510.1 | 1506.8 | 1501.7 | 1496.4 | 1490.4 | 1482.5
323.15 K | – | 1502.8 | 1499.9 | 1496.7 | 1492.4 | 1486.5 | 1480.7 | 1473.2 | 1464.1

CN1CCCC1=O + CCCC[n+]1ccn(C)c1.F[B-](F)(F)F
x1 = 1
Conditions | speed of sound [m/s]
298.15 K | 1543.8
303.15 K | 1524.3
308.15 K | 1505
313.15 K | 1485.7
318.15 K | 1466.7
